Data on 14 molecules can be found in patent US20090099177A1, “PYRIDYL COMPOUNDS” (priority 2006, published 2009).

In one assay the target is T1, human EP1 receptor (Homo sapiens, UniProt P34995).
T1 construct: expressed in transfected cells; host or cells: CHO-K1
T1 sequence (P34995 1-402): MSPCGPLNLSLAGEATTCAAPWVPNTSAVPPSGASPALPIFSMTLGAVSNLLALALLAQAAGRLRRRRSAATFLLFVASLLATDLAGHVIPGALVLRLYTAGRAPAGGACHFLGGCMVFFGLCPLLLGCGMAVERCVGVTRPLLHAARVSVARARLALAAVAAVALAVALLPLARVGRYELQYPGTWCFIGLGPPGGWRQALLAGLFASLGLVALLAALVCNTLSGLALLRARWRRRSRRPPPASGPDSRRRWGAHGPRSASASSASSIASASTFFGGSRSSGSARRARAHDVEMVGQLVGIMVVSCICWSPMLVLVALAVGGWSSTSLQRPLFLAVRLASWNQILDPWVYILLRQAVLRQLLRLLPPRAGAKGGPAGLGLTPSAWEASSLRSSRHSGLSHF
The experiment in a line: human EP1 calcium mobilisation assay. The format is cell-based. The conditions noted are these: for Ki: human EP1, CHO-K1 cells, antagonism of PGE2, averages of a number of experiments, read-out: functional pKi value (converted). The procedure: (§1) Briefly, the antagonist properties of compounds are assessed by their ability to inhibit the mobilisation of intracellular calcium ([Ca^2+]i) in response to activation of EP1 or EP3 receptors by the natural agonist hormone prostaglandin E2 (PGE2). Increasing concentrations of antagonist reduce the amount of calcium that a given concentration of PGE2 can mobilise. The net effect is to displace the PGE2 concentration-effect curve to higher concentrations of PGE2. The amount of calcium produced is assessed using a calcium-sensitive fluorescent dye such as Fluo-4, AM and a suitable instrument such as a Fluorimetric Imaging Plate Reader (FLIPR). Increasing amounts of [Ca^2+]i produced by receptor activation increase the amount of fluorescence produced by the dye and give rise to an increasing signal. The signal may be detected using the FLIPR instrument and the data generated may be analysed with suitable curve-fitting software.
(§2) The human EP1 or EP3 calcium mobilisation assay (hereafter referred to as ‘the calcium assay’) utilises Chinese hamster ovary-K1 (CHO-K1) cells into which a stable (pCIN; BioTechniques 20 (1996): 102-110) vector containing either EP1 or EP3 cDNA has previously been transfected. Cells are cultured in suitable flasks containing culture medium such as DMEM:F-12 supplemented with 10% v/v foetal calf serum, 2 mM L-glutamine, 0.25 mg/ml geneticin, 100 μM flurbiprofen and 10 μg/ml puromycin.
(§3) For assay, cells are harvested using a proprietary reagent that dislodges cells such as Versene. Cells are re-suspended in a suitable quantity of fresh culture media for introduction into a 384-well plate. Following incubation for 24 hours at 37° C. the culture media is replaced with a medium containing Fluo-4 and the detergent pluronic acid, and a further incubation takes place. Concentrations of compounds are then added to the plate in order to construct concentration-effect curves. This may be performed on the FLIPR in order to assess the agonist properties of the compounds. Concentrations of PGE2 are then added to the plate in order to assess the antagonist properties of the compounds.
(§4) The data so generated may be analysed by means of a computerised curve-fitting routine. The concentration of compound that elicits a half-maximal inhibition of the calcium mobilisation induced by PGE2 (pIC50) may then be estimated.
A general note: Calcium assays in cells follow changes in intracellular calcium, usually with a dye or a luminescent sensor.

The target in the next assay is T2, human EP3 receptor (Homo sapiens, UniProt P43115).
T2 construct: expressed in transfected cells; host or cells: CHO-K1
T2 sequence (P43115 1-390): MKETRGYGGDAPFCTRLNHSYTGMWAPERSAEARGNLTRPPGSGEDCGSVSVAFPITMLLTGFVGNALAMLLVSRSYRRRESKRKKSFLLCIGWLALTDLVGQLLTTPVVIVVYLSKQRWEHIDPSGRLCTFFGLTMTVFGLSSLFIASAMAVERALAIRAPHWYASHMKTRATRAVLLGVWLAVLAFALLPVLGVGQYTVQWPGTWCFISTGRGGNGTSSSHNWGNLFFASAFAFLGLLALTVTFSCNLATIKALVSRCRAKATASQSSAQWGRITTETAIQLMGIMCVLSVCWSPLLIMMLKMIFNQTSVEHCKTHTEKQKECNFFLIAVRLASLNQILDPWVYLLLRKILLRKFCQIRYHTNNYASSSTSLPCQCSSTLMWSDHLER
The experiment in a line: human EP3 calcium mobilisation assay. Format: cell-based. The settings on record: human EP3, CHO-K1 cells, antagonism of PGE2; averages of a number of experiments; read-out: functional pKi value (converted). The procedure: as §1, §2, §3, §4

In assay [1] the target is T3, human prostanoid EP1 receptor (Homo sapiens, UniProt P34995).
T3 construct: expressed in transfected cells; host or cells: CHO-K1 (membrane fraction)
T3 sequence (P34995 1-402): T1 sequence (P34995 1-402)
As to the kind of experiment: Binding assay for the human prostanoid EP1 receptor (competition with [3H]-PGE2). The conditions noted are these: [3H]-PGE2 competition, human EP1, CHO-K1 membranes; averages of a number of experiments; read-out: pIC50 value (converted). The procedure: Competition assay using [^3H]-PGE2.
Compound potencies are determined using a radioligand binding assay. In this assay compound potencies are determined from their ability to compete with tritiated prostaglandin E2 ([^3H]-PGE2) for binding to the human EP1 receptor.
This assay utilises Chinese hamster ovary-K1 (CHO-K1) cells into which a stable vector containing the EP1 cDNA has previously been transfected. Cells are cultured in suitable flasks containing culture medium such as DMEM:F-12 supplemented with 10% v/v foetal calf serum, 2 mM L-glutamine, 0.25 mg/ml geneticin, 10 μg/ml puromycin and 10 μM indomethacin.
Cells are detached from the culture flasks by incubation in calcium and magnesium free phosphate buffered saline containing 1 mM disodium ethylenediaminetetraacetic acid (Na2EDTA) and 10 μM indomethacin for 5 min. The cells are isolated by centrifugation at 250×g for 5mins and suspended in an ice cold buffer such as 50 mM Tris, 1 mM Na2EDTA, 140 mM NaCl, 10 μM indomethacin (pH 7.4). The cells are homogenised using a Polytron tissue disrupter (2×10 s burst at full setting), centrifuged at 48,000×g for 20mins and the pellet containing the membrane fraction is washed (optional) three times by suspension and centrifugation at 48,000×g for 20mins. The final membrane pellet is suspended in an assay buffer such as 10 mM 2-[N-morpholino]ethanesulphonic acid, 1 mM Na2EDTA, 10 mM MgCl2 (pH 6). Aliquots are frozen at −80° C. until required.
For the binding assay the cell membranes, competing compounds and [^3H]-PGE2 (3 nM final assay concentration) are incubated in a final volume of 100 μl for 30 min at 30° C. All reagents are prepared in assay buffer. Reactions are terminated by rapid vacuum filtration over GF/B filters using a Brandell cell harvester. The filters are washed with ice cold assay buffer, dried and the radioactivity retained on the filters is measured by liquid scintillation counting in Packard TopCount scintillation counter.
The data are analysed using non linear curve fitting techniques to determine the concentration of compound producing 50% inhibition of specific binding (IC50).

For assay [2], the target named is T4, EP1 receptor (Rattus norvegicus, UniProt P70597).
T4 sequence (P70597 1-405): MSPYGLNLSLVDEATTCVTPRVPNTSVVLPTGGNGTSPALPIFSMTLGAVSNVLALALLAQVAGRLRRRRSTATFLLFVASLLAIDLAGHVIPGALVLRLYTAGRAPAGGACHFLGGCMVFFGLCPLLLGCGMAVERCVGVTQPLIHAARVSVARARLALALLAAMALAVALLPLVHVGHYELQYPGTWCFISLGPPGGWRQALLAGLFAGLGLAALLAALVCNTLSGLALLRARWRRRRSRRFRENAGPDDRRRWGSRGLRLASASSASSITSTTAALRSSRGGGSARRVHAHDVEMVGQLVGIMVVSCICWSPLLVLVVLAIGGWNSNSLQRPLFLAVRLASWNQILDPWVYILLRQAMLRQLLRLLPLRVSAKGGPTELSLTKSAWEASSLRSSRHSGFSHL
Set-up: host or cells: rat, in vivo. The settings on record: chronic constriction injury; cited from earlier work.

For assay [3], the target named is T4, EP1 receptor. Set-up: host or cells: rodent, in vivo. The conditions noted are these: rodent, post-operative pain; cited from earlier work.

Where a name gives a salt, the structure may show the parent alone. Bounds are passed on as bounds.

Consider `CC(C)(C)NC(=O)c1cccc(Cc2cc(Cl)ccc2OCc2ccccc2)n1` [Example 8, 6-({5-Chloro-2-[(phenylmethyl)oxy]phenyl}methyl)-N-(1,1-dimethylethyl)-2-pyridinecarboxamide], for which the IC50 on human EP1 receptor (human EP1 calcium mobilisation assay, read-out: pIC50 values (converted)) was above 10000 nM. Besides, the Ki on human EP3 receptor was at most 3160 nM.
As to `CC(C)NC(=O)c1cccc(Cc2cc(Cl)ccc2OCc2ccccc2)n1` [Example 9, 6-({5-Chloro-2-[(phenylmethyl)oxy]phenyl}methyl)-N-(1-methylethyl)-2-pyridinecarboxamide], the figures for the Ki at human EP1 receptor and at human EP3 receptor were at most 316 nM and at most 1000 nM, respectively.
The corresponding values for `O=C(Nc1cccc(Cc2cc(Cl)ccc2OCc2ccccc2)n1)C1CCOCC1` [Example 14, N-[6-({5-Chloro-2-[(phenylmethyl)oxy]phenyl}methyl)-2-pyridinyl]tetrahydro-2H-pyran-4-carboxamide] are at most 316 nM and at most 3160 nM.
Regarding `CC(C)COc1ccc(Cl)cc1Cc1cccc(-c2nc3ncccc3[nH]2)n1` [Example 21, 2-[6-({5-Chloro-2-[(2-methylpropyl)oxy]phenyl}methyl)-2-pyridinyl]-1H-imidazo[4,5-b]pyridine hydrochloride], the IC50 in assay [1] was at most 100 nM. Moreover, the Ki on human EP1 receptor was at most 316 nM; at human EP3 receptor it was at most 3160 nM.
For `CC(C)COc1ccc(Cl)cc1Cc1cccc(-c2nc3cc4cnn(C)c4cc3[nH]2)n1` [Example 23, 6-[6-({5-Chloro-2-[(2-methylpropyl)oxy]phenyl}methyl)-2-pyridinyl]-1-methyl-1,5-dihydroimidazo[4,5-f]indazolehydrochloride], the Ki on human EP1 receptor was at most 316 nM; on human EP3 receptor it was at most 1000 nM.
In the same order, the values of `CC(C)COc1ccc(Cl)cc1Cc1cccc(-c2nc3c(ccc4nn[nH]c43)[nH]2)n1` [Example 25, 7-[6-({5-Chloro-2-[(2-methylpropyl)oxy]phenyl}methyl)-2-pyridinyl]-1,6-dihydroimidazo[4,5-e][1,2,3]benzotriazolehydrochloride] are at most 316 nM and at most 1000 nM.
For the molecule `Clc1ccc(OCc2ccccc2)c(Cc2cccc(-c3nc4cncnc4[nH]3)n2)c1` [Example 33, 8-[6-({5-Chloro-2-[(phenylmethyl)oxy]phenyl}methyl)-2-pyridinyl]-1H-purinehydrochloride], in assay [1], the IC50 is at most 100 nM. In addition, the Ki at human EP1 receptor was at most 316 nM; on human EP3 receptor, at most 1000 nM.
In the same order, the values of `Clc1ccc(OCc2ccccc2)c(Cc2cccc(-c3nc4cc5cn[nH]c5cc4[nH]3)n2)c1` [Example 39, 6-[6-({5-Chloro-2-[(phenylmethyl)oxy]phenyl}methyl)-2-pyridinyl]-1,5-dihydroimidazo[4,5-f]indazolehydrochloride] are at most 100 nM, at most 316 nM and at most 3160 nM.
In the same order, the values of `Clc1ccc(OCc2ccccc2)c(Cc2cccc(-c3ncc[nH]3)n2)c1` [Example 43, 2-({5-Chloro-2-[(phenylmethyl)oxy]phenyl}methyl)-6-(1H-imidazol-2-yl)pyridine Hydrochloride] are at most 100 nM, at most 316 nM and at most 1000 nM.
Take `CC(C)COc1ccc(Cl)cc1Cc1cccc(-c2nc3ccc(CN4CCCC4)cc3[nH]2)n1` [Example 49, 2-[6-({5-Chloro-2-[(2-methylpropyl)oxy]phenyl}methyl)-2-pyridinyl]-5-(1-pyrrolidinylmethyl)-1H-benzimidazole hydrochloride]: the Ki on human EP1 receptor was at most 10000 nM; on human EP3 receptor it was at most 3160 nM.
Regarding `CC(C)COc1ccc(Cl)cc1Cc1cccc(-c2nc3ccc(CN(C)C)cc3[nH]2)n1` [Example 51, ({2-[6-({5-Chloro-2-[(2-methylpropyl)oxy]phenyl}methyl)-2-pyridinyl]-1H-benzimidazol-5-yl}methyl)dimethylaminehydrochloride], the IC50 in assay [1] was at most 100 nM. Moreover, the Ki at human EP1 receptor is at most 316 nM; at human EP3 receptor, at most 3160 nM.
For the molecule `CC(C)(C)OC(=O)Nc1cccc(Cc2cc(Cl)ccc2OCc2ccc(Cl)cc2F)n1` [Example 61, 1,1-Dimethylethyl {6-[(5-chloro-2-{[(4-chloro-2-fluorophenyl)methyl]oxy}phenyl)methyl]-2-pyridinyl}carbamate Hydrochloride], the IC50 in assay [1] is at most 100 nM. For the same molecule, the Ki at human EP1 receptor was at most 316 nM.
As for `CC(C)COc1ccc(Cl)cc1Cc1cccc(NC(=O)c2ccc(CO)cc2)n1` [Example 62, N-[6-({5-Chloro-2-[(2-methylpropyl)oxy]phenyl}methyl)-2-pyridinyl]-4-(hydroxymethyl)benzamide], the IC50 in assay [1] was at most 100 nM. Also, the Ki at human EP1 receptor was at most 10000 nM.
Consider `Cc1cc(Cl)ccc1S(=O)(=O)NC[C@H]1C2CCC(CC2)[C@@H]1/C=C\CCCC(=O)O` [ONO-8711], for which the hyperalgesia and allodynia result at EP1 receptor [2] was “reduces hyperalgesia and allodynia”. The mechanical hyperalgesia result at EP1 receptor [3] is given as “inhibits mechanical hyperalgesia”.
